Data published in patent publication US10428082B2, “Triazole derivatives of melampomagnolide B and methods of use thereof” (BioVentures, LLC, priority 2016, dated 2019).
Like-named read-outs stand apart in the source and are kept apart here.

Assays:
A498 = assay: NCI 60 growth inhibition; assay type: cell-based, human; conditions: Homo sapiens; A498, Renal Cancer, Table 2
A549/ATCC = assay: NCI 60 growth inhibition; assay type: cell-based, human; conditions: Homo sapiens, Non-Small Cell Lung Cancer, Table 2
BT-549 = assay: NCI 60 growth inhibition; assay type: cell-based, human; conditions: Homo sapiens; BT-549, Breast Cancer, Table 2
CCRF-CEM = assay: NCI 60 growth inhibition; assay type: cell-based, human; conditions: Homo sapiens, Leukemia, Table 2
COLO 205 = assay: NCI 60 growth inhibition; assay type: cell-based, human; conditions: Homo sapiens; COLO 205, Colon Cancer, Table 2
EKVX = assay: NCI 60 growth inhibition; assay type: cell-based, human; conditions: Homo sapiens, Non-Small Cell Lung Cancer, Table 2
HOP-62 = assay: NCI 60 growth inhibition; assay type: cell-based, human; conditions: Homo sapiens; HOP-62, Non-Small Cell Lung Cancer, Table 2
HOP-92 = assay: NCI 60 growth inhibition; assay type: cell-based, human; conditions: Homo sapiens; HOP-92, Non-Small Cell Lung Cancer, Table 2
HT29 = assay: NCI 60 growth inhibition; assay type: cell-based, human; conditions: Homo sapiens; HT-29, Colon Cancer, Table 2
KM12 = assay: NCI 60 growth inhibition; assay type: cell-based, human; conditions: Homo sapiens; KM12, Colon Cancer, Table 2
NCI-H23 = assay: NCI 60 growth inhibition; assay type: cell-based, human; conditions: Homo sapiens; NCI-H23, Non-Small Cell Lung Cancer, Table 2
NCI-H322M = assay: NCI 60 growth inhibition; assay type: cell-based, human; conditions: Homo sapiens, Non-Small Cell Lung Cancer, Table 2
OVCAR-3 = assay: NCI 60 growth inhibition; assay type: cell-based, human; conditions: Homo sapiens; OVCAR-3, Ovarian Cancer, Table 2
OVCAR-4 = assay: NCI 60 growth inhibition; assay type: cell-based, human; conditions: Homo sapiens; OVCAR-4, Ovarian Cancer, Table 2
OVCAR-5 = assay: NCI 60 growth inhibition; assay type: cell-based, human; conditions: Homo sapiens; OVCAR-5, Ovarian Cancer, Table 2
OVCAR-8 = assay: NCI 60 growth inhibition; assay type: cell-based, human; conditions: Homo sapiens; OVCAR-8, Ovarian Cancer, Table 2
RXF 393 = assay: NCI 60 growth inhibition; assay type: cell-based, human; conditions: Homo sapiens, RXF 393, RXF 393, Renal Cancer, Table 2
SF-295 = assay: NCI 60 growth inhibition; assay type: cell-based, human; conditions: Homo sapiens; SF-295, CNS Cancer, Table 2
SK-MEL-28 = assay: NCI 60 growth inhibition; assay type: cell-based, human; conditions: Homo sapiens; SK-MEL-28, Melanoma, Table 2
SNB-75 = assay: NCI 60 growth inhibition; assay type: cell-based, human; conditions: Homo sapiens; SNB-75, CNS Cancer, Table 2
T-47D = assay: NCI 60 growth inhibition; assay type: cell-based, human; conditions: Homo sapiens, T47D, Breast Cancer, Table 2
TK-10 = assay: NCI 60 growth inhibition; assay type: cell-based, human; conditions: Homo sapiens; TK-10, Renal Cancer, Table 2
UACC-257 = assay: NCI 60 growth inhibition; assay type: cell-based, human; conditions: Homo sapiens; UACC-257, Melanoma, Table 2
[1] = tested on: NCI panel of 60 human cancer cell lines; assay: NCI 60 growth inhibition, ranges over groups of cell lines; assay type: cell-based; conditions: read-out: GI50
Protocol: The above triazole derivatives of melampomagnolide B were evaluated for growth inhibitory properties against an NCI panel of 60 human cancer cell lines derived from nine human cancer cell types, grouped into disease sub-panels that represent leukemia, lung, colon, central nervous system (CNS), melanoma, renal, ovary, breast, and prostate cancer cells. Growth inhibitory (GI50) effects were measured as a function of the variation of optical density as a percentage of control.

[2] = tested on: primary AML cell line AML1; assay: Anti-leukemic activity, Annexin V/7-AAD flow cytometry; assay type: cell-based, human; conditions: Homo sapiens, AML1, 24 h, 24 h of drug exposure; read-out: AML#1 (EC50)
Protocol: (§1) The newly synthesized triazole derivatives of melampomagnolide B were screened for anti-leukemic activity against M9 ENL1 and primary AML cell lines; the latter were obtained with informed consent from human patients. Evaluations were performed after 24 h of drug exposure using flow cytometric analysis by labeling with Annexin V and 7-aminoactinomycin D (7-AAD) to delineate apoptotic cell populations. In all experiments PTL was included as a reference control.

[3] = tested on: primary AML cell line AML2; assay: as above; assay type: cell-based, human; conditions: Homo sapiens, 24 h, 24 h of drug exposure; read-out: AML#2 (EC50)
Protocol: as §1

[4] = 60 cell, several cell lines in the NCI 60 cell panel

SMILES	GI50 (A498) [µM]	GI50 (A549/ATCC) [µM]	GI50 (BT-549) [µM]	GI50 (CCRF-CEM) [µM]	GI50 (COLO 205) [µM]	GI50 (EKVX) [µM]	GI50 (HOP-62) [µM]	GI50 (HOP-92) [µM]	GI50 (HT29) [µM]	GI50 (KM12) [µM]	GI50 (NCI-H23) [µM]	GI50 (NCI-H322M) [µM]	GI50 (OVCAR-3) [µM]	GI50 (OVCAR-4) [µM]	GI50 (OVCAR-5) [µM]	GI50 (OVCAR-8) [µM]	GI50 (RXF 393) [µM]	GI50 (SF-295) [µM]	GI50 (SNB-75) [µM]	GI50 (T-47D) [µM]	also measured
C=C1C(=O)O[C@H]2[C@H]1CC/C(Cn1cc(-c3ccccc3)nn1)=C\CC[C@@]1(C)O[C@@H]21 [JVM 3-74, (1aR,7aS,10aS,10bS,E)-1a-Methyl-8-methylene-5-((4-phenyl-1H-1,2,3-triazol-1-yl)methyl)-2,3,6,7,7a,8,10a,10b-octahydrooxireno[2′,3′:9,10]cyclodeca[1,2-b]furan-9(1aH)-one]	7.8	5.88	2.65	0.99	1.08	6.87	7.41	1.42	1.79	8.48	5.38	7.79	1.4	3.22	5.7	2.31	1.55	7.89	6.21	1.3	GI50 (SK-MEL-28): 1.06 µM; GI50 (TK-10): 1.21 µM; GI50 (UACC-257): 3.78 µM; GI50 [1, 4]: 0.2 to 0.99 µM
C=C1C(=O)O[C@H]2[C@H]1CC/C(Cn1cc(CCC)nn1)=C\CC[C@@]1(C)O[C@@H]21 [JVM 4-16, (1aR,7aS,10aS,10bS,E)-1a-Methyl-8-methylene-5((4-propyl-1H-1,2,3-triazol-1-yl)methyl)-2,3,6,7,7a,8,10a,10b-octahydrooxireno[2′,3′:9,10]cyclodeca[1,2-b]furan-9(1aH)-one]	21.5	22.3	14.2	3	5.22	11.5	14.1	2.94	5.5	17.6	13.6	21.5	3.96	9.46	14.1	13.5	4.8	18.5	18.5	4.11	GI50 (TK-10): 3.86 µM; GI50 ([1]; several cell lines in the panel): < 5 µM
C=C1C(=O)O[C@H]2[C@H]1CC/C(Cn1cc(-c3ccc(OC)cc3)nn1)=C\CC[C@@]1(C)O[C@@H]21 [JVM 4-24, (1aR,7aS,10aS,10bS,E)-5((4-(4-Methoxyphenyl)-1H-1,2,3-triazol-1-yl)methyl)-1a-methyl-8-methylene-2,3,6,7,7a,8,10a,10b-octahydrooxireno[2′,3′:9,10]cyclodeca[1,2-b]furan-9(1aH)-one]	2.35	10.9	1.31	0.29	0.5	2.47	10.5	1.13	1.23	3.51	2.06	10.7	0.56	1.52	1.71	2.59	0.7	11	1.47	1.43	EC50 [2]: 2 µM; EC50 [3]: 2.5 µM; GI50 (SK-MEL-28): 0.82 µM; GI50 (TK-10): 1.42 µM; GI50 (UACC-257): 1.78 µM; GI50 [1, 4]: 0.2 to 0.99 µM
